Measurements taken from ChEMBL document CHEMBL1201862, “PubChem BioAssay data set” (2004).
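All cell lines were grown in 96-well plates and treated with compound for 48 hours. GI50 marks 50% less growth.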 Activity calls are given as the source filed them. Cut-off read from the data, not from the text of the source: active = GI50 up to about 1.1 µM and inactive = higher.

What was measured:
Experiment in all cases: NCI-60 cell line screen, 48 h
786-0 = test system: 786-0
HOP-62 = test system: HOP-62
KM12 = test system: KM12
MDA-MB-435 = test system: MDA-MB-435
MDA-N = test system: MDA-N
Malme-3M = test system: Malme-3M
NCI-H23 = test system: NCI-H23
NCI-H522 = test system: NCI-H522
NCI/ADR-RES = test system: NCI/ADR-RES
RPMI-8226 = test system: RPMI-8226
SF-539 = test system: SF-539
SK-MEL-2 = test system: SK-MEL-2
SK-OV-3 = test system: SK-OV-3
T47D = test system: T47D
U-251 = test system: U-251
UACC-257 = test system: UACC-257
UO-31 = test system: UO-31
SW-620 = test system: SW-620
CCRF-CEM = test system: CCRF-CEM

Measured: GI50

COC(=O)CCCc1ccc2c(c1)CC1(C2)Cc2cc3c(cc2C1)CCCC3
inactive: 786-0 43.9 µM | HOP-62 34.8 µM | KM12 36.9 µM | MDA-MB-435 13.9 µM | MDA-N 16.8 µM | Malme-3M 37.6 µM | NCI-H23 61.9 µM | NCI-H522 17.7 µM | NCI/ADR-RES 47.6 µM | RPMI-8226 16 µM | SF-539 37.8 µM | SK-MEL-2 22.6 µM | SK-OV-3 > 100 µM | T47D 50.7 µM | U-251 40.5 µM | UACC-257 33.8 µM | UO-31 86.7 µM

N#CCCN(CCC#N)c1ccc(/C=C2\N=C(c3ccccc3)N(NC(=O)c3ccncc3)C2=O)cc1
inactive: 786-0 > 100 µM | HOP-62 > 100 µM | KM12 > 100 µM | MDA-MB-435 69.3 µM | MDA-N > 100 µM | NCI/ADR-RES > 100 µM | RPMI-8226 > 100 µM | SF-539 > 100 µM | SK-MEL-2 > 100 µM | SK-OV-3 > 100 µM | SW-620 > 100 µM | T47D > 100 µM | U-251 > 100 µM | UACC-257 > 100 µM | UO-31 > 100 µM

COc1cccc(CCNc2c(C#N)c3n(c4ccccc4[n+]3C)c3ncccc23)c1
inactive: 786-0 1.76 µM | HOP-62 17.5 µM | KM12 2 µM | MDA-MB-435 2.52 µM | MDA-N 5.2 µM | Malme-3M 17.5 µM | NCI-H23 20.3 µM | NCI-H522 4.16 µM | NCI/ADR-RES 6.93 µM | RPMI-8226 2.71 µM | SF-539 1.58 µM | SK-MEL-2 21.4 µM | SK-OV-3 20.3 µM | SW-620 2.47 µM | T47D 6.59 µM | U-251 2.37 µM | UACC-257 21.9 µM | UO-31 4.53 µM

Cc1ccc(Nc2[nH]c(=O)[nH]c(=O)c2C)cc1Cl
inactive: 786-0 > 100 µM | HOP-62 > 100 µM | KM12 > 100 µM | MDA-MB-435 > 100 µM | MDA-N > 100 µM | Malme-3M > 100 µM | NCI-H23 > 100 µM | NCI-H522 > 100 µM | NCI/ADR-RES > 100 µM | RPMI-8226 58.5 µM | SF-539 > 100 µM | SK-MEL-2 > 100 µM | SK-OV-3 > 100 µM | SW-620 > 100 µM | T47D > 100 µM | U-251 > 100 µM | UACC-257 > 100 µM | UO-31 30.4 µM

CC1=C2C(=O)O[C@@H](c3ccoc3)[C@]2(C)CCC1=O [FRAXINELLONONE]
inactive: 786-0 > 100 µM | CCRF-CEM > 100 µM | HOP-62 > 100 µM | KM12 > 100 µM | MDA-MB-435 > 100 µM | MDA-N > 100 µM | NCI-H23 > 100 µM | NCI/ADR-RES > 100 µM | RPMI-8226 > 100 µM | SF-539 > 100 µM | SK-MEL-2 > 100 µM | SK-OV-3 > 100 µM | SW-620 > 100 µM | T47D > 100 µM | U-251 > 100 µM | UACC-257 > 100 µM | UO-31 > 100 µM

CCn1ncc2c(=O)n3ncn(-c4ccc(Br)cc4)c3nc21
inactive: 786-0 > 100 µM | CCRF-CEM > 100 µM | HOP-62 > 100 µM | KM12 > 100 µM | MDA-MB-435 > 100 µM | MDA-N > 100 µM | Malme-3M > 100 µM | NCI-H23 > 100 µM | NCI-H522 > 100 µM | NCI/ADR-RES > 100 µM | RPMI-8226 > 100 µM | SK-MEL-2 > 100 µM | SK-OV-3 > 100 µM | SW-620 > 100 µM | T47D > 100 µM | U-251 > 100 µM | UACC-257 > 100 µM | UO-31 > 100 µM

COc1cccc(CSCC(=O)O)c1
inactive: 786-0 > 100 µM | HOP-62 > 100 µM | KM12 > 100 µM | MDA-MB-435 > 100 µM | MDA-N > 100 µM | Malme-3M > 100 µM | NCI-H23 > 100 µM | NCI-H522 > 100 µM | NCI/ADR-RES > 100 µM | RPMI-8226 > 100 µM | SF-539 > 100 µM | SK-MEL-2 > 100 µM | SK-OV-3 > 100 µM | SW-620 > 100 µM | T47D > 100 µM | U-251 > 100 µM | UACC-257 > 100 µM | UO-31 > 100 µM

COc1ccc(COCC[C@H](C)OC2OC(CO[Si](C)(C)C(C)(C)C)C(OC(=O)CCCN=[N+]=[N-])C(OC(=O)CCCN=[N+]=[N-])C2OC(=O)CCCN=[N+]=[N-])cc1 (stereo partly drawn)
inactive: 786-0 43.7 µM | CCRF-CEM 17.5 µM | HOP-62 97.5 µM | KM12 88.1 µM | MDA-MB-435 > 100 µM | MDA-N 44.9 µM | Malme-3M > 100 µM | NCI-H23 31.8 µM | NCI-H522 18.7 µM | NCI/ADR-RES 19.1 µM | SF-539 27.5 µM | SK-MEL-2 > 100 µM | SK-OV-3 > 100 µM | SW-620 > 100 µM | T47D 31 µM | U-251 29.6 µM | UACC-257 26.5 µM | UO-31 19.9 µM

O=c1[nH]nc(Cc2ccc([N+](=O)[O-])cc2)[nH]1
inactive: 786-0 > 100 µM | CCRF-CEM > 100 µM | HOP-62 > 100 µM | KM12 > 100 µM | MDA-MB-435 > 100 µM | MDA-N > 100 µM | Malme-3M > 100 µM | NCI-H23 > 100 µM | NCI-H522 > 100 µM | NCI/ADR-RES > 100 µM | RPMI-8226 > 100 µM | SF-539 > 100 µM | SK-MEL-2 > 100 µM | SW-620 > 100 µM | T47D > 100 µM | U-251 > 100 µM | UACC-257 > 100 µM | UO-31 52.5 µM

COc1ccc2c(c1OC)C(Br)CCC(Br)(Br)C2=O (stereo not drawn)
inactive: 786-0 4.23 µM | HOP-62 18.9 µM | KM12 16.3 µM | MDA-MB-435 6.41 µM | MDA-N 3.99 µM | Malme-3M 10.7 µM | NCI-H23 7.21 µM | NCI-H522 1.58 µM | NCI/ADR-RES 14.1 µM | RPMI-8226 4.81 µM | SF-539 3.17 µM | SK-MEL-2 14.4 µM | SK-OV-3 16.4 µM | SW-620 2.25 µM | T47D 13.8 µM | U-251 16.7 µM | UACC-257 14.6 µM | UO-31 4.81 µM

Fc1cc2nc3n(c2cc1F)C(c1c(Cl)cccc1Cl)SC3 (stereo not drawn)
inactive: 786-0 15 µM | HOP-62 16 µM | KM12 13.4 µM | MDA-MB-435 15.1 µM | MDA-N 15.7 µM | Malme-3M 17.6 µM | NCI-H23 16.6 µM | NCI-H522 16.9 µM | NCI/ADR-RES 16.1 µM | RPMI-8226 11.9 µM | SF-539 20.5 µM | SK-MEL-2 17.1 µM | SK-OV-3 16.5 µM | SW-620 18 µM | T47D 14.3 µM | U-251 17.1 µM | UACC-257 13.6 µM | UO-31 15.8 µM

C[C@H](CC[C@@H](O)C(C)(C)O)[C@H]1CC[C@@]2(C)[C@@H]3CC=C4[C@@H](CC[C@H](OC5OC(CO)C(O)C(O)C5O)C4(C)C)[C@]3(C)C(=O)C[C@]12C (stereo partly drawn)
inactive: 786-0 26.6 µM | CCRF-CEM 14.6 µM | HOP-62 36.8 µM | KM12 > 100 µM | MDA-MB-435 42.6 µM | MDA-N 32.7 µM | Malme-3M 49.4 µM | NCI-H23 > 100 µM | NCI-H522 37.6 µM | NCI/ADR-RES > 100 µM | SF-539 > 100 µM | SK-MEL-2 26.3 µM | SK-OV-3 31 µM | SW-620 4.03 µM | T47D 97.9 µM | U-251 33.6 µM | UACC-257 33.7 µM | UO-31 28.9 µM

COc1cc2c(cc1O)C1Cc3ccc(OC)c(O)c3C[N+]1(C)CC2 (stereo not drawn)
inactive: 786-0 > 100 µM | CCRF-CEM 45 µM | HOP-62 > 100 µM | KM12 > 100 µM | MDA-MB-435 > 100 µM | MDA-N > 100 µM | Malme-3M > 100 µM | NCI-H23 > 100 µM | NCI/ADR-RES > 100 µM | RPMI-8226 > 100 µM | SF-539 > 100 µM | SK-MEL-2 > 100 µM | SK-OV-3 > 100 µM | SW-620 > 100 µM | T47D > 100 µM | U-251 > 100 µM | UO-31 > 100 µM

CC(=O)OCC1OC(n2c(C)c(C(C)=O)c(-c3cccc4ccccc34)c(C#N)c2=S)C(OC(C)=O)C(OC(C)=O)C1OC(C)=O (stereo not drawn)
inactive: 786-0 > 100 µM | CCRF-CEM > 100 µM | HOP-62 > 100 µM | KM12 > 100 µM | MDA-MB-435 > 100 µM | MDA-N > 100 µM | Malme-3M > 100 µM | NCI-H23 > 100 µM | NCI-H522 > 100 µM | NCI/ADR-RES > 100 µM | SF-539 > 100 µM | SK-MEL-2 > 100 µM | SK-OV-3 > 100 µM | SW-620 > 100 µM | T47D > 100 µM | U-251 > 100 µM | UACC-257 > 100 µM
active: UO-31 < 0.01 µM

C[C@@H]1CC[C@@]2(C)C(C(=O)O)=CCCC2[C@@]1(C)CC(=O)c1ccoc1 (stereo partly drawn)
inactive: 786-0 > 25 µM | CCRF-CEM > 25 µM | KM12 > 25 µM | MDA-MB-435 > 25 µM | MDA-N > 25 µM | NCI-H23 > 25 µM | NCI-H522 > 25 µM | NCI/ADR-RES > 25 µM | RPMI-8226 > 25 µM | SF-539 > 25 µM | SK-MEL-2 > 25 µM | SK-OV-3 > 25 µM | SW-620 > 25 µM | T47D > 25 µM | U-251 > 25 µM | UACC-257 > 25 µM | UO-31 > 25 µM
